Results from patent US10538555B2, “Macrocyclic inhibitors of the PD-1/PD-L1 and CD80(B7-1)/PD-L1 protein/protein interactions” (BRISTOL-MYERS SQUIBB COMPANY, priority 2014, dated 2020).
Like-named read-outs stand apart in the source and are kept apart here. *1 amine or outer side, *2 acyl side, *3 side chain or, on linkers, in order; H or OH if unused. Where a SMILES comes first, the peptide text is derived from it. Bridges are numbered along the chain shown (N, C = ends). [ ]: non-standard residue; d: D form. ξ: configuration not given here. Trp(1-CH2COOH) = N[C@@H](Cc1cn(CC(=O)O)c2ccccc12)C(=O)O; Phe(3,4,5-F3) = N[C@@H](Cc1cc(F)c(F)c(F)c1)C(=O)O; Morpholine(3S-CO) = O=C(O)[C@@H]1COCCN1; d(cisHyp) = O=C(O)[C@H]1C[C@@H](O)CN1; NMeY = CN[C@@H](Cc1ccc(O)cc1)C(=O)O; Hyp = O=C(O)[C@@H]1C[C@@H](O)CN1; NMeF = CN[C@@H](Cc1ccccc1)C(=O)O; X1 = O=C([C@H]1COCCN1[*:1])[*:2]; αMeF = C[C@](N)(Cc1ccccc1)C(=O)O; dHyp = O=C(O)[C@H]1C[C@H](O)CN1; NMeNle = CCCC[C@H](NC)C(=O)O; Pip = O=C(O)[C@@H]1CCCCN1; dPip = O=C(O)[C@H]1CCCCN1; NMeA = CN[C@@H](C)C(=O)O; Orn = NCCC[C@H](N)C(=O)O; Dab = NCC[C@H](N)C(=O)O; Abu = CC[C@H](N)C(=O)O; Dap = NC[C@H](N)C(=O)O; ξPip = O=C(O)C1CCCCN1; ξC = NC(CS)C(=O)O; Sar = CNCC(=O)O

Molecular target: T1, Human PD-L1/PD-1 (Homo sapiens, UniProt Q9NZQ7)
T1 construct: TVMV protease cleavage site (C); made in house; host or cells: HEK293T cells
T1 sequence (Q9NZQ7 with tags, fused parts or gaps): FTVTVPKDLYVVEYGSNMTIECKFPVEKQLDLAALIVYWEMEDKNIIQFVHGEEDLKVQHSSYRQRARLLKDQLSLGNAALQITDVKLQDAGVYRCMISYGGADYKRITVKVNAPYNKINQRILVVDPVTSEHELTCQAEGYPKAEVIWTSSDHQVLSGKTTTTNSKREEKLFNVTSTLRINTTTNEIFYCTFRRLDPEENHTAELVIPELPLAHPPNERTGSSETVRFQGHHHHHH
Experiment: HTRF Human PD-L1/PD-1 binding assay (PD-1-Ig/PD-L1-His)
Details: PD-L1-His 10 nM, PD-1-Ig 20 nM
Outline: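 Soluble HEK293T-expressed proteins: hPD-L1-His 10 nM, hPD-1-Ig 20 nM final. Cpd + PD-L1 15 min, + PD-1 15 min, + Eu anti-Ig 1 nM/APC anti-His 20 nM 30 min. Buffer dPBS, 0.1% BSA, 0.05% Tween-20. TR-FRET 665/620.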

[1] = class symbol, read-out: HTRF Human PD-L1/PD-1 Binding Assay IC50 Range

`CCCC[C@H]1C(=O)N(C)[C@@H](CCCC)C(=O)N[C@@H](CC(C)C)C(=O)N[C@H](C(=O)NCC(N)=O)CSCC(=O)N[C@@H](Cc2ccc(O)cc2)C(=O)N2CCCC[C@H]2C(=O)N[C@@H](CC(=O)O)C(=O)N2CCC[C@H]2C(=O)N[C@@H](Cc2cnc[nH]2)C(=O)N[C@@H](CCC(N)=O)C(=O)N2C[C@H](O)C[C@H]2C(=O)N[C@@H](Cc2c[nH]c3ccccc23)C(=O)N[C@@H](CO)C(=O)N[C@@H](Cc2cn(CC(=O)O)c3ccccc23)C(=O)N1C` [Example 1293] ({CH2CO}-Y[Pip]DPHQ[Hyp]WS[Trp(1-CH2COOH)][NMeNle][NMeNle]LCG-NH2; thioether N-14) was tested, and the IC50 [1] was 10 to 99.9 nM.

Molecule `CCCC[C@H]1C(=O)N(C)CC(=O)N[C@@H](CO)C(=O)N[C@@H](CC)C(=O)N(C)[C@@H](Cc2ccccc2)C(=O)N[C@@H](Cc2ccc(O)cc2)C(=O)N2CCCC[C@@H]2C(=O)N[C@@H](Cc2c[nH]c3ccccc23)C(=O)N[C@@H](Cc2ccc(O)cc2)C(=O)N[C@@H](CC(C)C)C(=O)N[C@H](C(=O)NCC(N)=O)CSCC(=O)N[C@@H](Cc2ccccc2)C(=O)N(C)[C@@H](Cc2ccccc2)C(=O)N1C` [Example 10061] ({CH2CO}-F[NMeF][NMeNle][Sar]S[Abu][NMeF]Y[dPip]WYLCG-NH2; thioether N-13) has an IC50 [1] of 10 to 99.9 nM.

`CCCC[C@H]1C(=O)N(C)[C@@H](CCCC)C(=O)N[C@@H](CN)C(=O)N[C@H](C(=O)NCC(N)=O)CSCC(=O)N[C@@H](Cc2ccc(O)cc2)C(=O)N(C)[C@@H](C)C(=O)N[C@@H](CC(=O)O)C(=O)N2CCC[C@H]2C(=O)N[C@@H](CN)C(=O)N[C@@H](CCC(N)=O)C(=O)N2C[C@H](O)C[C@H]2C(=O)N[C@@H](Cc2c[nH]c3ccccc23)C(=O)N[C@@H](CO)C(=O)N[C@@H](Cc2cn(CC(=O)O)c3ccccc23)C(=O)N1C` [Example 5226] ({CH2CO}-Y[NMeA]DP[Dap]Q[Hyp]WS[Trp(1-CH2COOH)][NMeNle][NMeNle][Dap]CG-NH2; thioether N-14) showed an IC50 [1] of 1 to 9.9 nM.

For `CCCC[C@H]1C(=O)N(C)[C@@H](CCCC)C(=O)N[C@@H](CCC(=O)O)C(=O)NC(C(=O)NCC(N)=O)CSCC(=O)N[C@@H](Cc2ccc(O)cc2)C(=O)N(C)[C@@H](C)C(=O)N[C@@H](CC(N)=O)C(=O)N2CCC[C@H]2C(=O)N[C@@H](Cc2c[nH]cn2)C(=O)N[C@@H](CC(N)=O)C(=O)N2CCC[C@H]2C(=O)N[C@@H](Cc2c[nH]c3ccccc23)C(=O)N[C@@H](CN)C(=O)N[C@@H](Cc2c[nH]c3ccccc23)C(=O)N1C` (stereo partly drawn) [Example 9178] ({CH2CO}-Y[NMeA]NPHNPW[Dap]W[NMeNle][NMeNle]E[ξC]G-NH2; thioether N-14), the IC50 [1] was 100 to 990 nM.

`CCCC[C@H]1C(=O)N(C)CC(=O)N[C@@H](CC(=O)O)C(=O)NC(C(C)c2ccccc2)C(=O)N(C)[C@@H](Cc2ccccc2)C(=O)N[C@@H](Cc2ccc(O)cc2)C(=O)N(C)CC(=O)N[C@@H](Cc2c[nH]c3ccccc23)C(=O)N[C@@H](Cc2ccc(O)cc2)C(=O)N[C@@H](CC(C)C)C(=O)N[C@H](C(=O)NCC(N)=O)CSCC(=O)N[C@@H](Cc2ccccc2)C(=O)N(C)[C@@H](Cc2ccccc2)C(=O)N1C` (single isomer, unassigned) [Example 3230-A] was tested, and the IC50 [1] was 1000 to 10000 nM.

`CCCC[C@H]1C(=O)N(C)[C@@H](CCCC)C(=O)N[C@@H](CCCNC(=N)N)C(=O)N[C@H](C(=O)NCC(N)=O)CSCC(=O)N[C@@H](Cc2ccc(OC)cc2)C(=O)N(C)[C@@H](C)C(=O)N[C@@H](CC(N)=O)C(=O)N2CCC[C@H]2C(=O)N[C@@H](Cc2cnc[nH]2)C(=O)N[C@@H](CCC(=O)O)C(=O)N2C[C@H](O)C[C@H]2C(=O)N[C@@H](Cc2c[nH]c3ccccc23)C(=O)N[C@@H](CO)C(=O)N[C@@H](Cc2c[nH]c3ccccc23)C(=O)N1C` [Example 7086] ({CH2CO}-Y(Me)[NMeA]NPHE[Hyp]WSW[NMeNle][NMeNle]RCG-NH2; thioether N-14) showed an IC50 [1] of 1 to 9.9 nM.

`CCCC[C@H]1C(=O)N(C)[C@@H](CCCC)C(=O)N[C@@H](C)C(=O)N[C@H](C(=O)NCC(N)=O)CSCC(=O)N[C@@H](Cc2ccc(O)cc2)C(=O)N2CCOC[C@H]2C(=O)N[C@@H](CC(=O)O)C(=O)N2CCC[C@H]2C(=O)N[C@@H](CN)C(=O)N[C@@H](CC(C)C)C(=O)N2C[C@H](O)C[C@H]2C(=O)N[C@@H](Cc2c[nH]c3ccccc23)C(=O)N[C@@H](CO)C(=O)N[C@@H](Cc2c[nH]c3ccccc23)C(=O)N1C` [Example 1522] ({CH2CO}-Y[Morpholine(3S-CO)]DP[Dap]L[Hyp]WSW[NMeNle][NMeNle]ACG-NH2; thioether N-14) gave an IC50 [1] of 10 to 99.9 nM.

`CCCC[C@H]1NC(=O)[C@H](Cc2c[nH]c3ccccc23)NC(=O)[C@H](CO)NC(=O)[C@H](Cc2c[nH]c3ccccc23)NC(=O)[C@@H]2C[C@@H](O)CN2C(=O)[C@H](CC(C)C)NC(=O)[C@H](Cc2cnc[nH]2)NC(=O)[C@@H]2CCCN2C(=O)[C@H](CC(N)=O)NC(=O)[C@H](C)N(C)C(=O)[C@H](Cc2ccc(O)cc2)NC(=O)CSCC(C(=O)NCC(N)=O)NC(=O)[C@H](CCC(=O)O)NC(=O)[C@H](CCCC)N(C)C1=O` (stereo partly drawn) [Example 10131] was tested, and the IC50 (read-out: HTRF Human PD-L1/PD-1 Binding Assay IC50) was 2900 nM.

Work on `CCCC[C@H]1C(=O)N(C)[C@@H](CCCC)C(=O)N[C@@H](CCC(=O)O)C(=O)N[C@H](C(=O)NCC(N)=O)CSCC(=O)N[C@@H](Cc2ccc(O)cc2)C(=O)N(C)[C@@H](C)C(=O)N[C@@H](CC(N)=O)C(=O)N2CCC[C@H]2C(=O)N[C@@H](CN)C(=O)N[C@@H](CCC(N)=O)C(=O)N2C[C@H](O)C[C@H]2C(=O)N[C@@H](Cc2c[nH]c3ccccc23)C(=O)N[C@@H](CCC(=O)O)C(=O)N[C@@H](Cc2c[nH]c3ccccc23)C(=O)N1C` [Example 5191] ({CH2CO}-Y[NMeA]NP[Dap]Q[Hyp]WEW[NMeNle][NMeNle]ECG-NH2; thioether N-14) yielded an IC50 [1] of 1 to 9.9 nM.

With `CCCC[C@H]1C(=O)N2C[C@@H](O)C[C@@H]2C(=O)N[C@@H](CC(=O)O)C(=O)N[C@@H](C(C)C)C(=O)N(C)[C@@H](Cc2ccccc2)C(=O)N[C@@H](Cc2ccc(O)cc2)C(=O)N2C[C@@H](O)C[C@@H]2C(=O)N[C@@H](Cc2c[nH]c3ccccc23)C(=O)N[C@@H](Cc2ccc(O)cc2)C(=O)N[C@@H](CCCN)C(=O)N[C@H](C(=O)NCC(N)=O)CSCC(=O)N[C@@H](Cc2cc(F)c(F)c(F)c2)C(=O)N(C)[C@@H](Cc2ccccc2)C(=O)N1C` [Example 9274] ({CH2CO}-[Phe(3,4,5-F3)][NMeF][NMeNle][dHyp]DV[NMeF]Y[dHyp]WY[Orn]CG-NH2; thioether N-13) the IC50 [1] was 1 to 9.9 nM.

In the case of `CCCC[C@H]1C(=O)N2CCC[C@@H]2C(=O)N[C@@H](CC(=O)O)C(=O)N[C@@H](C(C)C)C(=O)N(C)[C@@H](Cc2ccccc2)C(=O)N[C@@H](CCC(=O)O)C(=O)N2CCOC[C@@H]2C(=O)N[C@@H](Cc2c[nH]c3ccccc23)C(=O)N[C@@H](Cc2ccc(O)cc2)C(=O)N[C@@H](CCCN)C(=O)N[C@H](C(=O)NCC(N)=O)CSCC(=O)N[C@@H](Cc2cc(F)c(F)c(F)c2)C(=O)N(C)[C@@H](Cc2ccc(O)cc2)C(=O)N1C` [Example 10618] ({CH2CO}-[Phe(3,4,5-F3)][NMeY][NMeNle][dP]DV[NMeF]E[X1]WY[Orn]CG-NH2; thioether N-13), the IC50 [1] is reported as 10 to 99.9 nM.

`CCCC[C@H]1C(=O)N2C[C@H](O)C[C@@H]2C(=O)N[C@@H](CC(=O)O)C(=O)N[C@@H](C(C)C)C(=O)N(C)[C@@H](Cc2ccccc2)C(=O)N[C@@H](Cc2ccc(O)cc2)C(=O)N2C[C@H](O)C[C@@H]2C(=O)N[C@@H](Cc2c[nH]c3ccccc23)C(=O)N[C@@H](Cc2ccc(O)cc2)C(=O)N[C@@H](CCC(N)=O)C(=O)N[C@H](C(=O)NCC(N)=O)CSCC(=O)N[C@@H](Cc2cc(F)c(F)c(F)c2)C(=O)N(C)[C@@H](Cc2ccccc2)C(=O)N1C` [Example 9328] ({CH2CO}-[Phe(3,4,5-F3)][NMeF][NMeNle][d(cisHyp)]DV[NMeF]Y[d(cisHyp)]WYQCG-NH2; thioether N-13) gave an IC50 [1] of 10 to 99.9 nM.

`CCCC[C@H]1C(=O)N(C)[C@@H](CCCC)C(=O)N[C@@H](CCCN)C(=O)N[C@H](C(=O)NCC(N)=O)CSCC(=O)N[C@@H](Cc2ccc(O)cc2)C(=O)N2CCCCC2C(=O)N[C@@H](CC(=O)O)C(=O)N2CCC[C@H]2C(=O)N[C@@H](Cc2c[nH]cn2)C(=O)N[C@@H](CCC(=O)O)C(=O)N2C[C@H](O)C[C@H]2C(=O)N[C@@H](Cc2c[nH]c3ccccc23)C(=O)N[C@@H](CCN)C(=O)N[C@@H](Cc2c[nH]c3ccccc23)C(=O)N1C` (stereo partly drawn) [Example 1531] ({CH2CO}-Y[ξPip]DPHE[Hyp]W[Dab]W[NMeNle][NMeNle][Orn]CG-NH2; thioether N-14) was tested, and the IC50 [1] was 10 to 99.9 nM.

With `CCCC[C@H]1C(=O)N(C)[C@@H](CCCC)C(=O)N[C@@H](CCC(=O)O)C(=O)N[C@H](C(=O)NCC(N)=O)CSCC(=O)N[C@@H](Cc2ccc(OC)cc2)C(=O)N(C)[C@@H](C)C(=O)N[C@@H](CCN)C(=O)N2CCC[C@H]2C(=O)N[C@@H](CN)C(=O)N[C@@H](CCC(=O)O)C(=O)N2C[C@H](O)C[C@H]2C(=O)N[C@@H](Cc2c[nH]c3ccccc23)C(=O)N[C@@H](CC(=O)O)C(=O)N[C@@H](Cc2c[nH]c3ccccc23)C(=O)N1C` [Example 7114] ({CH2CO}-Y(Me)[NMeA][Dab]P[Dap]E[Hyp]WDW[NMeNle][NMeNle]ECG-NH2; thioether N-14) the IC50 [1] was 100 to 990 nM.

`CCCC[C@H]1C(=O)N2CCC[C@@H]2C(=O)N[C@@H](CC(=O)O)C(=O)N[C@@H](C(C)C)C(=O)N[C@@](C)(Cc2ccccc2)C(=O)N[C@@H](Cc2ccc(O)cc2)C(=O)N2CCCC[C@@H]2C(=O)N[C@@H](Cc2c[nH]c3ccccc23)C(=O)N[C@@H](Cc2ccc(O)cc2)C(=O)N[C@@H](CC(C)C)C(=O)N[C@H](C(=O)NCC(N)=O)CSCC(=O)N[C@@H](Cc2ccccc2)C(=O)N(C)[C@@H](Cc2ccccc2)C(=O)N1C` [Example 3220] ({CH2CO}-F[NMeF][NMeNle][dP]DV[αMeF]Y[dPip]WYLCG-NH2; thioether N-13) showed an IC50 [1] of 10 to 99.9 nM.
